Where two headings read alike, the source gives them in different places.
Target: T1, hP2Y2R (Homo sapiens, UniProt P41231)
T1 construct: The 1321N1 cells expressing wild-type P2Y2R (P2Y2R-1321N1) were gifted by Dr. Elizabeth Rosethorne; expressed in transfected cells; host or cells: 1321N1 astrocytoma cells (P2Y2R-1321N1), gifted
Assay: Calcium-mobilization assay in P2Y2-1321N1 cells (antagonism of UTPγS)
Type: cell-based
Details: for Kb / hP2Y2 pKb: Gaddum equation; for hP2Y2R antagonist activity in words: calcium-mobilization assay

[1] = Table 2, shift of UTPγS concentration–response curve by a single antagonist concentration, mean ± SEM, read-out: hP2Y2 pKb (converted)
[2] = Table 2, shift of UTPγS concentration–response curve by a single antagonist concentration, mean ± SEM
[3] = Table 3, resolved enantiomers, shift of UTPγS curve, mean ± SEM, read-out: hP2Y2 pKb (converted)
[4] = Table 1, shift of UTPγS concentration–response curve by a single antagonist concentration, mean ± SEM, read-out: hP2Y2 pKb (converted)

T1 sequence (P41231 whole entry): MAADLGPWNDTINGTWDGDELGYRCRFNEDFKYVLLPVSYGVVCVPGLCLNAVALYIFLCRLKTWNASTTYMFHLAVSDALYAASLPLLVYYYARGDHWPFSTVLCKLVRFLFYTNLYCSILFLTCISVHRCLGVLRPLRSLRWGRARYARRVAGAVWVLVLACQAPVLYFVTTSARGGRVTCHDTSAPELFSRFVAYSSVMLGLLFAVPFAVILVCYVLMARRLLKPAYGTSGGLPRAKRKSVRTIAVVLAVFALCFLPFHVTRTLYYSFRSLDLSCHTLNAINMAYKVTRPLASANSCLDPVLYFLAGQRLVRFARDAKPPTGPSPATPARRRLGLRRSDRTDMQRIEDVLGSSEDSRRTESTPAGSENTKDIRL

SMILES	hP2Y2R antagonist activity in words	hP2Y2 pKb [2]	other results
CCOCCNc1nc2c(s1)C=Cc1cc(Cl)ccc1C2c1cn(C)c(=O)[nH]c1=S (centres unmarked) [Example 16, 5-(7-Chloro-2-((2-ethoxyethyl)amino)-4H-benzo[5,6]cyclohepta[1,2-d]thiazol-4-yl)-1-methyl-4-thioxo-3,4-dihydropyrimidin-2(1H)-one]	–	–	Kb [1]: 186 nM
Cn1cc(C2c3ccc(Cl)cc3C=Cc3sc(N)nc32)c(=S)[nH]c1=O (centres unmarked) [Example 7, 5-(2-Amino-7-chloro-4H-benzo[5,6]cyclohepta[1,2-d]thiazol-4-yl)-1-methyl-4-thioxo-3,4-dihydropyrimidin-2(1H)-one]	–	–	Kb [1]: 275 nM
COCCCNc1nc2c(s1)C=Cc1cc(Cl)ccc1C2c1cn(C)c(=O)[nH]c1=S (centres unmarked) [Example 15, 5-(7-Chloro-2-((3-methoxypropyl)amino)-4H-benzo[5,6]cyclohepta[1,2-d]thiazol-4-yl)-1-methyl-4-thioxo-3,4-dihydropyrimidin-2(1H)-one]	–	–	Kb [1]: 275 nM
CN1CCN(c2nc3c(s2)C=Cc2cc(Cl)ccc2C3c2cn(C)c(=O)[nH]c2=S)CC1 (centres unmarked) [Example 11, 5-(7-Chloro-2-(4-methylpiperazin-1-yl)-4H-benzo[5,6]cyclohepta[1,2-d]thiazol-4-yl)-1-methyl-4-thioxo-3,4-dihydropyrimidin-2(1H)-one]	inactive	IA (3) (IA = inactive; i.e., less than a 50% inhibition of the response to 0.1 μM UTPγS in the presence of a 10 μM concentration of the compound (n = 3))	–
Cn1cc(C2c3ccc(Cl)cc3C=Cc3sc(N4CCOCC4)nc32)c(=S)[nH]c1=O (centres unmarked) [Example 12, 5-(7-Chloro-2-morpholino-4H-benzo[5,6]cyclohepta[1,2-d]thiazol-4-yl)-1-methyl-4-thioxo-3,4-dihydropyrimidin-2(1H)-one]	inactive	IA (3) (IA = inactive; i.e., less than a 50% inhibition of the response to 0.1 μM UTPγS in the presence of a 10 μM concentration of the compound (n = 3))	–
Cn1cc(C2c3ccc(Cl)cc3C=Cc3sc(NCCc4ccccc4)nc32)c(=S)[nH]c1=O (centres unmarked) [Example 10, 5-(7-Chloro-2-(phenethylamino)-4H-benzo[5,6]cyclohepta[1,2-d]thiazol-4-yl)-1-methyl-4-thioxo-3,4-dihydropyrimidin-2(1H)-one]	inactive	IA (3) (IA = inactive; i.e., less than a 50% inhibition of the response to 0.1 μM UTPγS in the presence of a 10 μM concentration of the compound (n = 3))	–
COCCNc1nc2c(s1)C=Cc1cc(Cl)ccc1C2c1cn(C)c(=O)[nH]c1=S (centres unmarked) [Example 20]	–	–	Kb [3]: 234 nM
CCOCCNc1nc2c(s1)C=Cc1cc(Cl)ccc1C2c1cn(C)c(=O)[nH]c1=S (centres unmarked) [Example 22]	–	–	hP2Y2 pKb (Table 3, resolved enantiomers, shift of UTPγS curve, mean ± SEM): IA ^c (3) (IA = inactive; i.e., less than a 50% inhibition of the response to 0.1 μM UTPγS in the presence of a 10 μM concentration of the compound (n = 3)); Kb (Table 7, shift of agonist dose–response curve by a single antagonist concentration, mean ± SEM, read-out: pKb Ca2+ mobilization (converted)): > 10000 nM
Cn1cc(C2c3ccc(Cl)cc3C=Cc3sc(NCc4ccccc4)nc32)c(=S)[nH]c1=O (centres unmarked) [Example 9, 5-(2-(Benzylamino)-7-chloro-4H-benzo[5,6]cyclohepta[1,2-d]thiazol-4-yl)-1-methyl-4-thioxo-3,4-dihydropyrimidin-2(1H)-one]	inactive	IA (3) (IA = inactive; i.e., less than a 50% inhibition of the response to 0.1 μM UTPγS in the presence of a 10 μM concentration of the compound (n = 3))	–
Cn1cc(C2c3ccc(Cl)cc3C=Cc3sc(N4CCCCC4)nc32)c(=S)[nH]c1=O (centres unmarked) [Example 13, 5-(7-Chloro-2-(piperidin-1-yl)-4H-benzo[5,6]cyclohepta[1,2-d]thiazol-4-yl)-1-methyl-4-thioxo-3,4-dihydropyrimidin-2(1H)-one]	inactive	IA (3) (IA = inactive; i.e., less than a 50% inhibition of the response to 0.1 μM UTPγS in the presence of a 10 μM concentration of the compound (n = 3))	–
COCCNc1nc2c(s1)C=Cc1cc(Cl)ccc1C2c1cn(C)c(=O)[nH]c1=S (racemic) [Example 14, 5-(7-Chloro-2-((2-methoxyethyl)amino)-4H-benzo[5,6]cyclohepta[1,2-d]thiazol-4-yl)-1-methyl-4-thioxo-3,4-dihydropyrimidin-2(1H)-one]	–	–	Kb [1]: 251 nM
Cc1ccc2c(c1)C=Cc1cc(C)ccc1C2c1cn(C)c(=O)[nH]c1=S [Example 4, 5-(2,8-Dimethyl-5H-dibenzo[a,d][7]annulen-5-yl)-1-methyl-4-thioxo-3,4-dihydropyrimidin-2(1H)-one]	inactive	–	hP2Y2 pKb (Table 1, shift of UTPγS concentration–response curve by a single antagonist concentration, mean ± SEM): IA ^b (IA = inactive; i.e., less than a 50% inhibition of the response to 0.1 μM UTPγS in the presence of a 10 μM concentration of the compound)
COCCNc1nc2c(s1)C=Cc1cc(Cl)ccc1C2c1cn(Cc2nc(C(=O)Nc3nnn[nH]3)cs2)c(=O)[nH]c1=S (centres unmarked) [Example 24, 2-((5-(7-Chloro-2-((2-methoxyethyl)amino)-4H-benzo[5,6]cyclohepta[1,2-d]thiazol-4-yl)-2-oxo-4-thioxo-3,4-dihydropyrimidin-1(2H)-yl)methyl)-N-(1H-tetrazol-5-yl)thiazole-4-carboxamide]	–	–	Kd (quoted in text for nonfluorescent antagonists, mean ± SEM, read-out: hP2Y2R affinity pKd (converted)): 95.5 nM
COCCNc1nc2c(s1)C=Cc1cc(Cl)ccc1C2c1cn(C)c(=O)[nH]c1=S (centres unmarked) [Example 21]	–	–	Kb [3]: 1510 nM
Cc1ccc2c(c1)C=Cc1cc(C)ccc1C2c1cn(Cc2nc(C(=O)Nc3nnn[nH]3)cs2)c(=O)[nH]c1=S [Example 3, 2-((5-(2,8-Dimethyl-5H-dibenzo[a,d][7]annulen-5-yl)-2-oxo-4-thioxo-3,4-dihydropyrimidin-1(2H)-yl)methyl)-N-(1H-tetrazol-5-yl)thiazole-4-carboxamide]	–	–	Kb [4]: 77.6 nM
Cc1nc2c(s1)C=Cc1cc(Cl)ccc1C2c1cn(Cc2nc(C(=O)Nc3nnn[nH]3)cs2)c(=O)[nH]c1=S (centres unmarked) [Example 5, 2-((5-(7-Chloro-2-methyl-4H-benzo[5,6]cyclohepta[1,2-d]thiazol-4-yl)-2-oxo-4-thioxo-3,4-dihydropyrimidin-1(2H)-yl)methyl)-N-(1H-tetrazol-5-yl)thiazole-4-carboxamide]	–	–	Kb [4]: 331 nM
CC(C)OCCNc1nc2c(s1)C=Cc1cc(Cl)ccc1C2c1cn(C)c(=O)[nH]c1=S (centres unmarked) [Example 17, 5-(7-Chloro-2-((2-isopropoxyethyl)amino)-4H-benzo[5,6]cyclohepta[1,2-d]thiazol-4-yl)-1-methyl-4-thioxo-3,4-dihydropyrimidin-2(1H)-one]	–	–	Kb [1]: 324 nM
Cn1cc(C2c3ccc(Cl)cc3C=Cc3sc(Nc4ccccc4)nc32)c(=S)[nH]c1=O (centres unmarked) [Example 8, 5-(7-Chloro-2-(phenylamino)-4H-benzo[5,6]cyclohepta[1,2-d]thiazol-4-yl)-1-methyl-4-thioxo-3,4-dihydropyrimidin-2(1H)-one]	inactive	IA ^b (3) (IA = inactive; i.e., less than a 50% inhibition of the response to 0.1 μM UTPγS in the presence of a 10 μM concentration of the compound (n = 3))	–
Cc1nc2c(s1)C=Cc1cc(Cl)ccc1C2c1cn(C)c(=O)[nH]c1=S (centres unmarked) [Example 6, 5-(7-Chloro-2-methyl-4H-benzo[5,6]cyclohepta[1,2-d]thiazol-4-yl)-1-methyl-4-thioxo-3,4-dihydropyrimidin-2(1H)-one]	–	–	Kb [4]: 1020 nM
CCOCCNc1nc2c(s1)C=Cc1cc(Cl)ccc1C2c1cn(C)c(=O)[nH]c1=S (centres unmarked) [Example 23]	–	–	Kb [3]: 166 nM

More lines, main results first:

hP2Y2R antagonist activity in words	SMILES	hP2Y2 pKb [2]	other results
inactive	Cn1cc(C2c3ccc(Cl)cc3C=Cc3sc(NCCOc4ccccc4)nc32)c(=S)[nH]c1=O (centres unmarked) [Example 18, 5-(7-Chloro-2-((2-phenoxyethyl)amino)-4H-benzo[5,6]cyclohepta[1,2-d]thiazol-4-yl)-1-methyl-4-thioxo-3,4-dihydropyrimidin-2(1H)-one]	IA (3) (IA = inactive; i.e., less than a 50% inhibition of the response to 0.1 μM UTPγS in the presence of a 10 μM concentration of the compound (n = 3))	–
complete loss of affinity	Cn1cc(C2c3ccc(Cl)cc3C=Cc3sc(-c4ccccc4)nc32)c(=S)[nH]c1=O (centres unmarked) [Example 19, 5-(7-Chloro-2-phenyl-4H-benzo[5,6]cyclohepta[1,2-d]thiazol-4-yl)-1-methyl-4-thioxo-3,4-dihydropyrimidin-2(1H)-one]	IA (3) (IA = inactive; i.e., less than a 50% inhibition of the response to 0.1 μM UTPγS in the presence of a 10 μM concentration of the compound (n = 3))	–

From PMC6026847, “Synthesis and Evaluation of the First Fluorescent Antagonists of the Human P2Y2 Receptor Based on AR-C118925” (Journal of Medicinal Chemistry, 2018)
